Experimental data taken from the supplement of paper PMC9402605.

Columns and labels:
Experiment in all cases: number of L4/adult animals relative to DMSO control (development) (fraction of control); higher = more growth (less toxic); extreme values may be limits of the assay
Settings in all cases: concentration unit: uM
RP2674 mev-1(tr393) = system: RP2674 mev-1(tr393)
Protocol: (§1)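 About 20 L1 larvae of wild-type or anthelmintic-resistant C. elegans strains were grown in 96-well plates with HB101 E. coli and a compound dilution series (0.6% DMSO). The number of L4/adult animals was counted after 72 h (day 7 for the slow-growing PR1152) and normalised to DMSO wells. Values are the mean of 3 biological replicates, each done in technical triplicate.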

VC731 unc-63(ok1075) = system: VC731 unc-63(ok1075)
Protocol: as §1

CB3474 ben-1(e1880) = system: CB3474 ben-1(e1880)
Protocol: as §1

RB2119 acr-23(ok2804) = system: RB2119 acr-23(ok2804)
Protocol: as §1

PR1152 cha-1(p1152) = system: PR1152 cha-1(p1152)
Protocol: as §1

NM1968 slo-1(js379) = system: NM1968 slo-1(js379)
Protocol: as §1

CF1038 daf-16(mu86) = system: CF1038 daf-16(mu86)
Protocol: as §1

CB1072 unc-29(e1072) = system: CB1072 unc-29(e1072)
Protocol: as §1

[1] = system: DA1316 avr-14;avr-15;glc-1
Protocol: as §1

N2 = system: N2
Protocol: as §1

O=C(NCCc1ncc(C(F)(F)F)cc1Cl)c1ccccc1C(F)(F)F [fluopyram]
number of L4/adult animals
Settings | CB1072 unc-29(e1072) | CB3474 ben-1(e1880) | CF1038 daf-16(mu86) | N2 | NM1968 slo-1(js379) | PR1152 cha-1(p1152) | RB2119 acr-23(ok2804) | RP2674 mev-1(tr393) | VC731 unc-63(ok1075) | [1]
concentration: 0.09375 | 0.915 | 1.01 | 1.02 | 1.06 | 0.984 | 0.97 | 1.01 | 1.1 | 0.961 | 0.958
concentration: 0.1875 | 0.705 | 0.812 | 0.957 | 0.953 | 0.617 | 0.284 | 0.981 | 1.14 | 0.651 | 0.854
concentration: 0.375 | 0.689 | 0.674 | 0.451 | 0.712 | 0.0215 | 0 | 0.372 | 1.01 | 0.305 | 0.176
concentration: 0.75 | 0 | 0 | 0 | 0 | 0 | 0 | 0 | 0.999 | 0 | 0
concentration: 1.5 | 0 | 0 | 0 | 0 | 0 | 0 | 0 | 1.06 | 0 | 0
concentration: 3 | 0 | 0 | 0 | 0 | 0 | 0 | 0 | 1.03 | 0 | 0
concentration: 6 | 0 | 0 | 0 | 0 | 0 | 0 | 0 | 0.91 | 0 | 0

c1ccc([C@H]2CN3CCSC3=N2)cc1 [levamisole]
number of L4/adult animals
Settings | CB1072 unc-29(e1072) | CB3474 ben-1(e1880) | CF1038 daf-16(mu86) | N2 | NM1968 slo-1(js379) | PR1152 cha-1(p1152) | RB2119 acr-23(ok2804) | RP2674 mev-1(tr393) | VC731 unc-63(ok1075) | [1]
concentration: 9.375 | 1.09 | 0.906 | 0.606 | 0.964 | 0.888 | 0.329 | 0.95 | 0.783 | 1 | 0.774
concentration: 18.75 | 1.07 | 0.964 | 0.91 | 0.973 | 0.984 | 0.207 | 0.812 | 0.942 | 1.03 | 1.01
concentration: 37.5 | 1.1 | 1.06 | 1.01 | 1.05 | 0.95 | 0.0255 | 0.632 | 1.04 | 0.996 | 0.984
concentration: 75 | 1.01 | 0.914 | 0.827 | 1.08 | 0.856 | 0.00498 | 0.47 | 0.914 | 1.09 | 0.871
concentration: 150 | 1.08 | 0.627 | 0.678 | 0.535 | 0.595 | 0 | 0.13 | 0.352 | 1.07 | 0.487
concentration: 300 | 0.988 | 0.403 | 0.335 | 0.218 | 0.0768 | 0 | 0.0225 | 0.0923 | 1.02 | 0.106
concentration: 600 | 1.04 | 0.0551 | 0.0591 | 0.0242 | 0 | 0 | 0 | 0.029 | 1.04 | 0.00556
